{
  "source": "patent EP4663191A1",
  "about": "“USE OF TYROSINE KINASE INHIBITOR” (Qilu Animal Health Products Co., Ltd., priority 2023, dated 2024)",
  "key": {"[1]": {"system": "mouse mast cell tumor P815 cells", "experiment": "In vivo efficacy in DBA/2 mouse model of subcutaneous homologous transplantation of P815 cells", "conditions": "for Tumor volume (mm^3): average ±SEM; for TGI: Day 8, vs vehicle control", "description": "Test sample: the dimaleate of the compound of formula (I) of the present application (content: 99.7%), and Toceranib phosphate (content: 98.2%, commercially available), the concentration and dosage of administration of the test sample prepared in the following implementation are all calculated in terms of free alkali.\nTest animal: the species is mouse; the strain is DBA/2 mouse; the age is 6-8 weeks old, and the weight is 19-24 g; and the gender is female.\nExperimental methods and steps: mouse mast cell tumor P815 cells (ATCC-TIB-64) were adherent and cultured in vitro. The culture conditions were DMEM medium, 10 vol% fetal bovine serum, 1 vol% double antibody, and cultured in a cell incubator at 37 °C with 5% CO2. Conventional digestion treatment and passage were carried out twice a week with trypsin-EDTA. When the cell saturation reached 80-90% and the quantity satisfied the requirements, the cells were collected, counted and inoculated.\n0.1 mL of PBS containing 5×10^5 P815 cells was subcutaneously inoculated into the subcutaneous area of the right forelimb axilla of each mouse. At day 8 after cell inoculation, when the average tumor volume reached 100 mm^3, group administration was started. The experiment was grouped into a negative control group (without an active ingredient), an administration group, and a positive control group (with the active ingredient Toceranib), with 8 mice in each group. The negative control (vehicle), the dimaleate of the compound of formula (I), and Toceranib phosphate were administered orally once daily for an 8-day administration period. Health status and mortality of animals were monitored every day. Routine examinations included observing the effects of tumor growth and drug treatment on daily behavioral performance of animals, such as behavioral activities, food and water intake (only visually), weight changes (measuring weight twice a week), appearance signs or other abnormal conditions. Table 1. Preparation methods of the test samples\nTable 2. Grouping of experimental animals and administration protocols\nThe experimental indicators were to examine whether the tumor growth was inhibited, delayed or cured. The diameter of the tumor was measured with a vernier caliper. The calculation formula for tumor volume was: V = 0.5a × b^2 , [formula] wherein a and b represented the long diameter and the short diameter of the tumor, respectively. The anti-tumor efficacy of the compound was determined by TGI (%). TGI (%) reflects the rate of tumor growth inhibition. Calculation of TGI (%): TGI (%) = [1-(Average tumor volume at the end of administration in a certain treatment group - Average tumor volume at the start of administration in this treatment group) / (Average tumor volume at the end of treatment in the vehicle control group - Average tumor volume at the start of treatment in the vehicle control group)] ×100%."}, "[2]": {"system": "mouse mast cell tumor cells P815 cells (ATCC-TIB-64)", "experiment": "MTT assay (thiazolyl blue colorimetric assay), inhibition of tumor cell proliferation", "format": "cell-based", "description": "Test sample: the dimaleate of the compound of formula (I) of the present application.\nThe inhibition effect of the dimaleate of the compound of formula (I) on the growth of mouse mast cell tumor cells P815 cells (ATCC-TIB-64) was detected by MTT assay (thiazolyl blue colorimetric assay), and IC50 (half inhibitory concentration) was calculated and obtained."}, "[3]": {"experiment": "Adverse reactions and safety in dogs with mast cell tumors under treatment (VCOG-CTCAE)", "format": "in vivo", "description": "(§1) Since May 2021, a total of 14 dogs with mast cell tumors have been collected and enrolled for treatment with a dimaleate of the compound of formula (I). Table 4: Clinical staging criteria for canine cutaneous mast cell tumors\n(§2) The affected dogs with mast cell tumor were administered with the drug of the dimaleate of the compound of formula (I) at a dose of 2.0 mg/kg to 3.25 mg/kg (all doses were calculated based on free base, the same below), orally once every other day. For affected dogs with assessable solid tumors, baseline assessment was performed before the first trial medication. After the administration of the first trial medication, mass measurement and blood routine examination were performed every 2 weeks, and blood biochemical examination and imaging examination were performed every 4 weeks to evaluate the response to tumor treatment until disease progression, intolerable drug withdrawal due to treatment-related side effects, or death of enrolled dogs, and to evaluate the efficacy and safety of the compound of formula (I) in the treatment of a canine mast cell tumor and a breast tumor. The primary observation endpoints: objective response rate (ORR), disease control rate (DCR), progression-free survival (PFS), and overall survival (OS); complete response (CR), partial response (PR), stable disease (SD), and progressive disease (PD).\n(Adverse event assessment criteria refer to VCOG-CTCAE (Veterinary cooperative oncology group-common terminology criteria for adverse events (VCOG-CTCAE) following chemotherapy or biological antineoplastic therapy in dogs and cats v1.1. Vet Comp Oncol. 2016))."}, "canine mast cell tumor": {"system": "canine mast cell tumor", "experiment": "Anti-tumor effect in dogs with mast cell tumors (clinical cases)", "format": "in vivo", "description": "as §1, §2"}, "[4]": {"conditions": "14 dogs, 2.0 mg/kg to 3.25 mg/kg orally once every other day, n=4"}},
  "note": "pIC50: −log10 of the molar value. “And” between values parts separate entries of the source, which are not always exact repeats. Equal entries are not always repeated.",
  "data": [
    {"smiles": "Cc1[nH]c(/C=C2\\C(=O)Nc3ccc(F)cc32)c(C)c1C(=O)NCCN1CCCC1", "note": "[Toceranib, reference compound]", "values": [
      {"measurement": "Tumor volume (mm^3)", "setting": "[1]; Day 0 after administration, 40mg/kg PO QD", "result": "100±4", "unit": "mm^3"},
      {"measurement": "Tumor volume (mm^3)", "setting": "[1]; Day 2 after administration, 40mg/kg PO QD", "result": "127±6", "unit": "mm^3"},
      {"measurement": "Tumor volume (mm^3)", "setting": "[1]; Day 4 after administration, 40mg/kg PO QD", "result": "231±14", "unit": "mm^3"},
      {"measurement": "Tumor volume (mm^3)", "setting": "[1]; Day 6 after administration, 40mg/kg PO QD", "result": "299±15", "unit": "mm^3"},
      {"measurement": "TGI", "setting": "[1]; 40 mg/kg PO QD, p < 0.001", "result": 43.38, "unit": "%"},
      {"measurement": "Tumor volume (mm^3)", "setting": "[1]; Day 8 after administration, 40mg/kg PO QD, 40 mg/kg", "result": "510 mm^3 and 510±38 mm^3"}
    ]},
    {"smiles": "Cc1[nH]c(/C=C2\\C(=O)Nc3ccc(F)cc32)c(C)c1NC(=O)CCN1CCN(C)CC1", "note": "[dimaleate of the compound of formula (I), N-(5-((Z)-(5-fluoro-2-carbonylindole-3-ylidene)methyl)-2,4-dimethyl-1H-pyrrol-3-yl)-3-(4-methylpiperazin-1-yl) propanamide]", "values": [
      {"measurement": "Tumor volume (mm^3)", "setting": "[1]; Day 0 after administration, 20mg/kg PO QD", "result": "100±4", "unit": "mm^3"},
      {"measurement": "Tumor volume (mm^3)", "setting": "[1]; Day 2 after administration, 20mg/kg PO QD", "result": "141±22", "unit": "mm^3"},
      {"measurement": "Tumor volume (mm^3)", "setting": "[1]; Day 4 after administration, 20mg/kg PO QD", "result": "244±35", "unit": "mm^3"},
      {"measurement": "Tumor volume (mm^3)", "setting": "[1]; Day 6 after administration, 20mg/kg PO QD", "result": "319±55", "unit": "mm^3"},
      {"measurement": "TGI", "setting": "[1]; 20 mg/kg PO QD, p = 0.003", "result": 47.25, "unit": "%"},
      {"measurement": "Tumor volume (mm^3)", "setting": "[1]; Day 8 after administration, 20mg/kg PO QD, listed as Compound of formula (I), 20 mg/kg", "result": "483 ±93", "unit": "mm^3"},
      {"measurement": "Tumor volume (mm^3)", "setting": "[1]; Day 8 after administration, 20mg/kg PO QD, listed as compound of formula (I), 20 mg/kg", "result": 483, "unit": "mm^3"},
      {"measurement": "pIC50", "setting": "[2]", "result": 6.32},
      {"measurement": "blood in urine (treatment-related clinical adverse reaction)", "setting": "[3]; 14 dogs, 2.0 mg/kg to 3.25 mg/kg orally once every other day, n=1, occasionally", "result": 7.1, "unit": "%"},
      {"measurement": "vomiting (treatment-related clinical adverse reaction)", "setting": "[3]; 14 dogs, 2.0 mg/kg to 3.25 mg/kg orally once every other day, n=3", "result": 21.4, "unit": "%"},
      {"measurement": "blood in stool (treatment-related clinical adverse reaction)", "setting": "[3]; [4]", "result": 28.6, "unit": "%"},
      {"measurement": "decreased appetite (treatment-related clinical adverse reaction)", "setting": "[3]; [4]", "result": 28.6, "unit": "%"},
      {"measurement": "diarrhea (treatment-related clinical adverse reaction)", "setting": "[3]; 14 dogs, 2.0 mg/kg to 3.25 mg/kg orally once every other day, n=9", "result": 64.3, "unit": "%"},
      {"measurement": "grade 3 or 4 adverse reactions", "setting": "[3]; 14 dogs, VCOG-CTCAE v1.1", "result": "No grade 3 or 4 adverse reactions were observed"},
      {"measurement": "blood routine and serum biochemistry", "setting": "[3]; Case 2 Tibetan mastiff, 2.84 mg/kg, June 21", "result": "no obvious abnormality was seen compared with the baseline"},
      {"measurement": "adverse effects after administration", "setting": "[3]; Case 4 Golden Retriever, stage I, no c-kit mutation, 2.4 mg/kg from January 2", "result": "no significant adverse effects were observed"},
      {"measurement": "adverse reactions after medication", "setting": "[3]; Case 4 Golden Retriever, 2.3 mg/kg from April 10 and from June 6", "result": "no obvious adverse reactions occurred after medication"},
      {"measurement": "adverse reactions after taking the medicine", "setting": "[3]; Case 4 Golden Retriever, continued at 2.4mg/kg from February 13", "result": "symptoms of soft stool and diarrhea occurred"},
      {"measurement": "blood routine and serum biochemistry", "setting": "[3]; Case 4 Golden Retriever, re-examined February 13, April 10, June 6 (August 7: blood routine only)", "result": "no obvious abnormalities were found"},
      {"measurement": "adverse reactions after medication", "setting": "[3]; Case 5 Golden Retriever, 2.25 mg/kg from October 15", "result": "no obvious adverse reactions occurred after medication"},
      {"measurement": "adverse reactions during treatment", "setting": "[3]; Case 5 Golden Retriever, 2.75 mg/kg, reported at October 15", "result": "Thin and watery stools occurred during a period"},
      {"measurement": "adverse reactions after dosing", "setting": "[3]; Case 5 Golden Retriever, 3.25 mg/kg from September 3", "result": "soft stools appeared once after dosing"},
      {"measurement": "adverse reactions after dosing", "setting": "[3]; Case 5 Golden Retriever, dosage adjusted to 2.75 mg/kg on September 7", "result": "no significant adverse reactions after dosing"},
      {"measurement": "mass decreased compared with the baseline", "setting": "canine mast cell tumor; Case 1 Golden Retriever, 3.07 mg/kg, 14 days (October 17)", "result": 12, "unit": "%"},
      {"measurement": "recurrence of the mass", "setting": "canine mast cell tumor; Case 1 Golden Retriever, after excision, 2.63 mg/kg, postoperative days 47, 82, 117 and 145", "result": "no recurrence of the mass was seen on the skin"},
      {"measurement": "survival period", "setting": "canine mast cell tumor; Case 1 Golden Retriever, as of March 28, 2022, 66 doses", "result": "greater than 176 days"},
      {"measurement": "total survival period", "setting": "canine mast cell tumor; Case 2 Tibetan mastiff, 2.84 mg/kg, died September 18, 2021", "result": 117, "unit": "days"},
      {"measurement": "mass on the cephalic side of the vulva", "setting": "canine mast cell tumor; Case 3 Labrador, 2.42 mg/kg, after 14 days, non-target lesion", "result": "significantly reduced"},
      {"measurement": "survival period", "setting": "canine mast cell tumor; Case 3 Labrador, as of April 17, 2022, medication 51 times", "result": "greater than 126 days"},
      {"measurement": "enlargement of the mass on the cephalic side of the vulva", "setting": "canine mast cell tumor; Case 3 Labrador, day 42 and day 77 of treatment, non-target lesion", "result": "No enlargement"},
      {"measurement": "survival period", "setting": "canine mast cell tumor; Case 4 Golden Retriever, 2.3-2.4 mg/kg, still under therapy", "result": "greater than 259 days"},
      {"measurement": "Nasal ultrasound", "setting": "canine mast cell tumor; Case 4 Golden Retriever, re-examined August 7", "result": "subcutaneous mass accompanied by invasive changes in adjacent turbinate bone"},
      {"measurement": "Nasal ultrasound", "setting": "canine mast cell tumor; Case 4 Golden Retriever, re-examined June 6", "result": "subcutaneous mass is suspected of invading the nasal cavity"}
    ]}
  ]
}
